Data reported in PubChem BioAssay (NCI).
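Following 48 hours of exposure in 96-well plates, responses at five concentrations were used to interpolate endpoints linearly. Abbreviation: GI50, concentration required for 50% inhibition of growth. At the TGI there is no net growth.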

How the values were obtained:
Assay in all cases: NCI tumour cell line growth inhibition, 48 h
[1] = test system: U251 CNS
[2] = test system: SK-OV-3 ovarian
[3] = test system: SF-539 CNS
[4] = test system: OVCAR-8 ovarian
[5] = test system: KM12 colon
[6] = test system: K-562 leukemia
[7] = test system: SNB-19 CNS
[8] = test system: NCI/ADR-RES ovarian
[9] = test system: HL-60(TB) leukemia
[10] = test system: UACC-257 melanoma
[11] = test system: SN12C renal
[12] = test system: UO-31 renal
[13] = test system: NCI-H226 lung
[14] = test system: CCRF-CEM leukemia
[15] = test system: UACC-62 melanoma
[16] = test system: HCT-116 colon
[17] = test system: A549 NSCLC
[18] = test system: OVCAR-4 ovarian
[19] = test system: MCF7 breast
[20] = test system: SNB-75 CNS
[21] = test system: SK-MEL-5 melanoma
[22] = test system: RXF 393 renal
[23] = test system: OVCAR-3 ovarian
[24] = test system: HOP-62 NSCLC
[25] = test system: PC-3 prostate
[26] = test system: HT29 colon
[27] = test system: T-47D breast
[28] = test system: HOP-92 NSCLC
[29] = test system: SK-MEL-28 melanoma
[30] = test system: OVCAR-5 ovarian
[31] = test system: NCI-H23 lung
[32] = test system: DU-145 prostate
[33] = test system: SK-MEL-2 melanoma
[34] = test system: CAKI-1 renal
[35] = test system: EKVX NSCLC
[36] = test system: LOX IMVI melanoma
[37] = test system: A498 renal
[38] = test system: MDA-MB-435
[39] = test system: TK-10 renal
[40] = test system: HS 578T breast
[41] = test system: BT-549 breast
[42] = test system: NCI-H522 lung
[43] = test system: 786-0 renal
[44] = test system: COLO 205 colon
[45] = test system: HCC-2998 colon
[46] = test system: SF-268 CNS
[47] = test system: MALME-3M melanoma
[48] = test system: IGROV1 ovarian
[49] = test system: HCT-15 colon
[50] = test system: M14 melanoma
[51] = test system: RPMI-8226 leukemia
[52] = test system: SF-295 CNS
[53] = test system: ACHN renal
[54] = test system: SW-620 colon
[55] = test system: NCI-H460 lung

Cn1ncc2c(N)nc(N3CCCCC3)nc21
GI50 [1]: 30.7 µM | TGI [1]: > 100 µM | GI50 [2]: 22.5 µM | TGI [2]: > 100 µM | GI50 [3]: 25.4 µM | TGI [3]: > 100 µM | GI50 [4]: 25.9 µM | TGI [4]: 76.1 µM | GI50 [5]: 26.2 µM | TGI [5]: 82.8 µM | GI50 [6]: 62 µM | TGI [6]: > 100 µM | GI50 [7]: 22.5 µM | TGI [7]: > 100 µM | GI50 [8]: > 100 µM | TGI [8]: > 100 µM | GI50 [9]: 36 µM | TGI [9]: > 100 µM | GI50 [10]: 54.4 µM | TGI [10]: > 100 µM | GI50 [11]: 28.5 µM | TGI [11]: 75.2 µM | GI50 [12]: 43 µM | TGI [12]: > 100 µM | GI50 [13]: 22.1 µM | TGI [13]: 48.3 µM | GI50 [14]: 25.7 µM | TGI [14]: 85.7 µM | GI50 [15]: 19.6 µM | TGI [15]: 37.3 µM | GI50 [16]: 45.3 µM | TGI [16]: > 100 µM | GI50 [17]: 66.1 µM | TGI [17]: > 100 µM | GI50 [18]: 27.2 µM | TGI [18]: > 100 µM | GI50 [19]: 17.1 µM | TGI [19]: 39.9 µM | GI50 [20]: 29.7 µM | TGI [20]: > 100 µM | GI50 [21]: 18.4 µM | TGI [21]: 33.8 µM | GI50 [22]: 18.2 µM | TGI [22]: 58.7 µM | GI50 [23]: 19.9 µM | TGI [23]: 71.7 µM | GI50 [24]: 51.9 µM | TGI [24]: > 100 µM | GI50 [25]: 33.5 µM | TGI [25]: > 100 µM | GI50 [26]: 22.5 µM | TGI [26]: 68.6 µM | GI50 [27]: 3.75 µM | TGI [27]: 34.6 µM | GI50 [28]: 44.3 µM | TGI [28]: > 100 µM | GI50 [29]: 24.1 µM | TGI [29]: > 100 µM | GI50 [30]: 38.5 µM | TGI [30]: > 100 µM | GI50 [31]: 28.4 µM | TGI [31]: > 100 µM | GI50 [32]: 19.2 µM | TGI [32]: 74.7 µM | GI50 [33]: 23 µM | TGI [33]: 71.6 µM | GI50 [34]: 29 µM | TGI [34]: > 100 µM | GI50 [35]: 91.2 µM | TGI [35]: > 100 µM | GI50 [36]: 22.7 µM | TGI [36]: 51.4 µM | GI50 [37]: 18.5 µM | TGI [37]: 42.9 µM | GI50 [38]: 24.1 µM | TGI [38]: 81.4 µM | GI50 [39]: 22.9 µM | TGI [39]: 77.8 µM | GI50 [40]: 28.3 µM | TGI [40]: 76.3 µM | GI50 [41]: 31.9 µM | TGI [41]: > 100 µM | GI50 [42]: 23 µM | TGI [42]: 63.9 µM | GI50 [43]: 69.3 µM | TGI [43]: > 100 µM | GI50 [44]: 19.7 µM | TGI [44]: 51.4 µM | GI50 [45]: 18.6 µM | TGI [45]: 58.6 µM | GI50 [46]: 29.6 µM | TGI [46]: 69.2 µM | GI50 [47]: 20.8 µM | TGI [47]: 67.9 µM | GI50 [48]: 33.9 µM | TGI [48]: > 100 µM | GI50 [49]: 26.2 µM | TGI [49]: 82.5 µM | GI50 [50]: 42.6 µM | TGI [50]: > 100 µM | GI50 [51]: 33.1 µM | TGI [51]: > 100 µM | GI50 [52]: 26.5 µM | TGI [52]: > 100 µM | GI50 [53]: 33.6 µM | TGI [53]: > 100 µM | GI50 [54]: 31 µM | TGI [54]: > 100 µM | GI50 [55]: 42.5 µM | TGI [55]: > 100 µM
